From article doi:10.1101/2025.11.20.689572v1 (biorxiv, 2025)
Like-named read-outs stand apart in the source and are kept apart here.

Experiments:
α2A = target: T1, α2A (Homo sapiens, UniProt P08913); test: competitive radioligand binding, HEK293 membranes
T1 construct: gene ADRA2A; full-length receptor; HEK293 cell membranes
Excerpt: competitive radioligand binding, HEK293 membranes on α2A

H1 = target: T2, H1 (Homo sapiens, UniProt P35367); test: competitive radioligand binding, HEK293 membranes
T2 construct: gene HRH1; full-length receptor; HEK293 cell membranes
T2 sequence (P35367 whole entry): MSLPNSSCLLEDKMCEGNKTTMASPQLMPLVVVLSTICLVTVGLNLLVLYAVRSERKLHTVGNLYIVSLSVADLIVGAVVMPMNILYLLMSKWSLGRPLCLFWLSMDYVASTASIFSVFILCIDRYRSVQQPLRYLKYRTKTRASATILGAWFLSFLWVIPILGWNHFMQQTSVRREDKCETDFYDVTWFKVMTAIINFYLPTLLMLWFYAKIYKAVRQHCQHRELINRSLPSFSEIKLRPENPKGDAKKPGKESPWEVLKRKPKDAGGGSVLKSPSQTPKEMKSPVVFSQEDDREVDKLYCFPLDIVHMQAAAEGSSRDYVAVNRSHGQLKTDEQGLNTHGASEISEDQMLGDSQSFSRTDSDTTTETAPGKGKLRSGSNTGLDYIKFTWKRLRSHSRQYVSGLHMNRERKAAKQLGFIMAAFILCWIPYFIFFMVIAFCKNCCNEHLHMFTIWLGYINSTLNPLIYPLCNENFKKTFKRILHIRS
Excerpt: competitive radioligand binding, HEK293 membranes on H1

M5 = target: T3, M5 (Homo sapiens, UniProt P08912); test: TRUPATH BRET2 G protein dissociation, HEK293; format: cell-based; details: HBSS, […] HEPES pH […] °C; agonist mode
T3 construct: gene CHRM5; full-length receptor; HEK293 with TRUPATH sensors (function)
T3 sequence (P08912 1-532): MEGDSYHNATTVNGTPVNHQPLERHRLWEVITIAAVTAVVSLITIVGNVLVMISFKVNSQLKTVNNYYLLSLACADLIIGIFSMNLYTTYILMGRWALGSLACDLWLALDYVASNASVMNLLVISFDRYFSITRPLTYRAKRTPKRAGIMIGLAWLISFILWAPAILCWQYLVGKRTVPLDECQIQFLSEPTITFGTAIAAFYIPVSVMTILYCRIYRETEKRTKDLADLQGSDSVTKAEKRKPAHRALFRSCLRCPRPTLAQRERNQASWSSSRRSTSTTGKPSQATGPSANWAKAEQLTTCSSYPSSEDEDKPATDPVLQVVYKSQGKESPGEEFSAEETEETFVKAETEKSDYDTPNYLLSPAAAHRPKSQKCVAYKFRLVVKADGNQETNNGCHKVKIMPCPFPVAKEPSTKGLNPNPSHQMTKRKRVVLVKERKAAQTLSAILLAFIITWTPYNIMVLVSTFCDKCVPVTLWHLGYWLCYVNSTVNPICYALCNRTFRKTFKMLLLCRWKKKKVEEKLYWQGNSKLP

α2B = target: T4, α2B (Homo sapiens, UniProt P18089); test: competitive radioligand binding, HEK293 membranes
T4 construct: gene ADRA2B; full-length receptor; HEK293 cell membranes
T4 sequence (P18089 whole entry): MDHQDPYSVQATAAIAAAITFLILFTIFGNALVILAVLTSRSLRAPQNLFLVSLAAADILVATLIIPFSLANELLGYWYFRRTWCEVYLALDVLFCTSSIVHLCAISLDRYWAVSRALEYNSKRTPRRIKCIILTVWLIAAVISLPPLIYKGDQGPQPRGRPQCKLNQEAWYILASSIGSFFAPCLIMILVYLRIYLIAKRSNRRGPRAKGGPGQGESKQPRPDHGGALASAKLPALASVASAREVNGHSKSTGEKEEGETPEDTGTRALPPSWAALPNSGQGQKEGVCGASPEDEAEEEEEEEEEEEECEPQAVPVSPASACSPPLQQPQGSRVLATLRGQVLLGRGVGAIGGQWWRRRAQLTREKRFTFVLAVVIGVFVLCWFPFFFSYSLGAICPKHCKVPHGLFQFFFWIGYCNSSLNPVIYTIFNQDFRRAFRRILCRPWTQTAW
Excerpt: competitive radioligand binding, HEK293 membranes on α2B

M4 = target: T5, M4 (Homo sapiens, UniProt P08173); test: TRUPATH BRET2 G protein dissociation, HEK293; format: cell-based; details: HBSS, […] HEPES pH […] °C; agonist mode
T5 construct: gene CHRM4; full-length receptor; HEK293 with TRUPATH sensors (function)
T5 sequence (P08173 1-479): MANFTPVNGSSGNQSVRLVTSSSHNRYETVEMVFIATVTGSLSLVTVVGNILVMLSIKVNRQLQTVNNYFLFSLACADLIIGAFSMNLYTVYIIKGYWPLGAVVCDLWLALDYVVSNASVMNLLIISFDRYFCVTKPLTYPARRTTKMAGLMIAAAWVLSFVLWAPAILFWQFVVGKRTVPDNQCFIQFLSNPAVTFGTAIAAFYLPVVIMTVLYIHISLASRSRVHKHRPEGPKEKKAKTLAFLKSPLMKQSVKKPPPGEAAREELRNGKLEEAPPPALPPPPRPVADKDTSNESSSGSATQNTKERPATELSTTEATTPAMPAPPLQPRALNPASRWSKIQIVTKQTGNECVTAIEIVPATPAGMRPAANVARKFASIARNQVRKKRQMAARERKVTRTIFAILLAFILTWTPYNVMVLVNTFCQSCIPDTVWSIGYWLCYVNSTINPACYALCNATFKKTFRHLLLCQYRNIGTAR

M1 = target: T6, M1 (Homo sapiens, UniProt P11229); test: TRUPATH BRET2 G protein dissociation, HEK293; format: cell-based; details: HBSS, […] HEPES pH […] °C; agonist mode
T6 construct: gene CHRM1; full-length receptor; HEK293 with TRUPATH sensors (function)
T6 sequence (P11229 1-460): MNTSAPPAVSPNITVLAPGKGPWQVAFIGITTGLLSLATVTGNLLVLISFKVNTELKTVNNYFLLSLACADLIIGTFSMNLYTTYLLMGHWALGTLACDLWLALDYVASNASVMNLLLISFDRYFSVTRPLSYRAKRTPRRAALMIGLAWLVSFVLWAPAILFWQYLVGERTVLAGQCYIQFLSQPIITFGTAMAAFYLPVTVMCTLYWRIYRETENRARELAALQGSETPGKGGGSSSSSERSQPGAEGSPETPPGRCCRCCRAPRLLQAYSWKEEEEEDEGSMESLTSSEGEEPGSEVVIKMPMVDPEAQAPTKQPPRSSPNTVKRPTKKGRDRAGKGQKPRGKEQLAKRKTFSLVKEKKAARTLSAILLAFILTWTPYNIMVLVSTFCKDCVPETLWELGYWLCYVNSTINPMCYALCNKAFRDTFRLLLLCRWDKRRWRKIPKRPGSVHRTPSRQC

SERT = target: T7, SERT (Homo sapiens, UniProt P31645); test: biochemical; set-up: species or system HEK293; PDSP competitive radioligand binding, membranes of transfected HEK293 cells, filtration, Ki by Cheng-Prusoff
T7 construct: gene SLC6A4
T7 sequence (P31645 whole entry): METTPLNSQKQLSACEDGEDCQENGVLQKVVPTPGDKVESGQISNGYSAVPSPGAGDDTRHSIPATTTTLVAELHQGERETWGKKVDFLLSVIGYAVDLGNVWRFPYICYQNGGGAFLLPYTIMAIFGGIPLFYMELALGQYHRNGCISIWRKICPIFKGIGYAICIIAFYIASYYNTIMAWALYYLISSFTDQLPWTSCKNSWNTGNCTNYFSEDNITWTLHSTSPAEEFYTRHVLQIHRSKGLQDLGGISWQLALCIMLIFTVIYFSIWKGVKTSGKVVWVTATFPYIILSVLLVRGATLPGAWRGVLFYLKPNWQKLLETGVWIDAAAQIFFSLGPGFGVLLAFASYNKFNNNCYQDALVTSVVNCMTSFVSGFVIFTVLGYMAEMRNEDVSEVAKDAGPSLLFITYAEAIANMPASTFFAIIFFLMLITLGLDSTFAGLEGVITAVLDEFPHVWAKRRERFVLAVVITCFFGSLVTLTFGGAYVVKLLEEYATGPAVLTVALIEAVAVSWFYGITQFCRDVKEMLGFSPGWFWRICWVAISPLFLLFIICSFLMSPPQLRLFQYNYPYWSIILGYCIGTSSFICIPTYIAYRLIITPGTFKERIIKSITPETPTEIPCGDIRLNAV
Procedure: Competitive radioligand binding assays were performed at the NIMH Psychoactive Drug Screening Program (PDSP) using membranes from transiently transfected HEK293 cells in 96-well format as described. Complete, target-specific protocols are available at the PDSP website (https://pdsp.unc.edu/pdspweb/?site=assays). Primary screenings were run at a single test concentration (10 µM) in quadruplicate. […] Secondary assays were conducted in triplicate using 12-point serial dilutions (0, 0.1, 0.3, 1, 3, 10, 30, 100, 300 nM; 1, 3, 10 µM). Assays were performed in a final volume of 125 µL per well in binding buffer, as detailed in the NIMH PDSP protocols (e.g., standard binding buffer: 50 mM Tris-HCl, pH 7.4, 10 mM MgCl2, 0.1 mM EDTA). Radioligand concentrations were chosen near the target-specific Kd. Total and nonspecific binding were defined in the absence and presence, respectively, of 10 µM reference ligand specific for each receptor. After 90 min incubation at room temperature, reactions were terminated by vacuum filtration onto 0.3% polyethyleneimine-pretreated UniFilter-96 GF/C Microplates using a FilterMate harvester, washed three times with ice-cold buffer (50 mM Tris HCl, pH 7.4), dried, treated with MicroScint-O [compound left out] scintillation cocktails, and counted on a MicroBeta counter. Equilibrium inhibition constants (Ki) were calculated from fitted IC50 values using the Cheng–Prusoff equation [14] with the assay-specific radioligand concentration and Kd. TABLE 1. […] Results represented mean ± SEM from a minimum of 3 independent assays, each in triplicate. ND=not determined.

T1 sequence (P08913 whole entry): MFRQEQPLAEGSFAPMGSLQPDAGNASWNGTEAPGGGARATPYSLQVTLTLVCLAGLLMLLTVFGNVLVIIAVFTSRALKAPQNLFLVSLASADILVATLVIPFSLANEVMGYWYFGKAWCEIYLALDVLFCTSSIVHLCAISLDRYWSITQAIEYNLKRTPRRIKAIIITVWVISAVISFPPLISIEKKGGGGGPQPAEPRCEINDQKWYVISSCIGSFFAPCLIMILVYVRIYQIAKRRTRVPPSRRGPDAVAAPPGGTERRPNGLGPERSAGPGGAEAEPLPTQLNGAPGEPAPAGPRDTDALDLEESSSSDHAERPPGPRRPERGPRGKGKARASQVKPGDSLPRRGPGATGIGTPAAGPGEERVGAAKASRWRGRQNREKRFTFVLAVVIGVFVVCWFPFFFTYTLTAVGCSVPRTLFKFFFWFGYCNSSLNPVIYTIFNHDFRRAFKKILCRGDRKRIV

Row | Compound | Ki (α2A) [nM] | Ki (H1) [nM] | EC50 (M5) | Ki (α2B) [nM] | EC50 (M4) | EC50 (M1) | Ki (SERT; read-out: N-desmethyl-xanomeline (PDSP) pKi (converted)) [nM] | Ki (SERT) [nM]
1 | CCCCCCOc1nsnc1C1=CCCNC1 [N-desmethylxanomeline] | 437 | 724 | differential activation of M1-M5 muscarinic receptor transducers | 339 | differential activation of M1-M5 muscarinic receptor transducers | differential activation of M1-M5 muscarinic receptor transducers | 1620 | –
2 | CCCCCCOc1nsnc1C1=CCCN(C)C1 [Xanomeline] | 955 | 100 | differential activation of M1-M5 muscarinic receptor transducers | 316 | xanomeline being more potent and efficacious than carbachol at M1 and M4 muscarinic receptors | xanomeline being more potent and efficacious than carbachol at M1 and M4 muscarinic receptors | – | > 10000
